The values that follow come from patent US9096639B2, “17-hydroxy-17-pentafluorethyl-estra-4,9(10)-dien-11-acyloxyalkylene phenyl derivatives, methods for the production thereof and use thereof for treating diseases” (Bayer Intellectual Property GmbH, priority 2009, dated 2015).

Counter-ions that a name gives are not always drawn.

Data set [1] is described as follows: Determination of hydrolytic stability (5:1 dioxane/buffer, HPLC). As to conditions: 5:1 dioxane/buffer solution, test ended after 24 or 192 hours, read-out: Hydrolytic stability t1/2. Type of data set: physicochemical. On the procedure:
The ester to be analyzed was dissolved in each case in a 5:1 mixture of dioxane and buffer solution (pH 1.2, pH 5.0 or pH 8.0) at 23° C. At different times, the content of ester and hydrolysis products (8S,11R,13S,14S,1 7S)-17-hydroxy-11-[4-((R)-1-hydroxyethyl)phenyl]-13-methyl-17-pentafluoroethyl-1,2,6,7,8,11,12,13,14,15,16,17-dodecahydrocyclopenta[a]phenanthren-3-one and/or (8S,11R,13S,14S,17S)-17-hydroxy-11-[4-((S)-1-hydroxyethyl)phenyl]-1 3-methyl-17-pentafluoroethyl-1,2,6,7,8,11,12,13,14,15,16,17-dodecahydrocyclopenta[a]phenanthren-3-one was determined by HPLC. The test was ended after 24 hours or 192 hours.

A short description of data set [2]: Determination of stability in human plasma. Format: in vitro ADME. On the procedure: (§1) A stock solution of 1.0 mg of the substance to be tested in a 9:1 mixture of acetonitrile and dimethyl sulphoxide was prepared. 20 μl of this stock solution were added at 37° C. to 1 ml of human plasma or rat plasma. To determine the content, 100 μl samples were each taken at different times. The enzyme activity was blocked by adding 300 μl of acetonitrile, the samples were centrifuged at 5000 rpm over 10 minutes and, in the supernatant, the content of ester and hydrolysis products (8S,11R,13S,14S,17S)-17-hydroxy-11-[4-((R)-1-hydroxyethyl)phenyl]-1 3-methyl-17-pentafluoroethyl-1,2,6,7,8,11,12,13,14,15,16,17-dodecahydrocyclopenta[a]phenanthren-3-one and/or (8S,11R,13S,14S,17S)-17-hydroxy-11-[4-((S)-1-hydroxyethyl)phenyl]-13-methyl-17-pentafluoroethyl-1,2,6,7,8,11,12,13,14,15,16,17-dodecahydrocyclopenta[a]phenanthrene-3-one was determined by HPLC. The concentration-time curves were used to calculate the degradation kinetics. The stability of the substance tested was reported as the half-life.

Data set [3] can be described thus: Determination of stability in rat plasma. To be noted: 37° C., read-out: Stability t1/2 in rat plasma (converted). Type of data set: in vitro ADME. The protocol: as §1
Data set [4] addresses T1, human progesterone receptor A (Homo sapiens, UniProt P06401).
T1 construct: expressed in transfected cells; host or cells: SK-N-MC human neuroblastoma cells, stably transfected with pRChPR-A-neo and pMMTV-LUC
T1 sequence (P06401 1-769 isoform P06401-2): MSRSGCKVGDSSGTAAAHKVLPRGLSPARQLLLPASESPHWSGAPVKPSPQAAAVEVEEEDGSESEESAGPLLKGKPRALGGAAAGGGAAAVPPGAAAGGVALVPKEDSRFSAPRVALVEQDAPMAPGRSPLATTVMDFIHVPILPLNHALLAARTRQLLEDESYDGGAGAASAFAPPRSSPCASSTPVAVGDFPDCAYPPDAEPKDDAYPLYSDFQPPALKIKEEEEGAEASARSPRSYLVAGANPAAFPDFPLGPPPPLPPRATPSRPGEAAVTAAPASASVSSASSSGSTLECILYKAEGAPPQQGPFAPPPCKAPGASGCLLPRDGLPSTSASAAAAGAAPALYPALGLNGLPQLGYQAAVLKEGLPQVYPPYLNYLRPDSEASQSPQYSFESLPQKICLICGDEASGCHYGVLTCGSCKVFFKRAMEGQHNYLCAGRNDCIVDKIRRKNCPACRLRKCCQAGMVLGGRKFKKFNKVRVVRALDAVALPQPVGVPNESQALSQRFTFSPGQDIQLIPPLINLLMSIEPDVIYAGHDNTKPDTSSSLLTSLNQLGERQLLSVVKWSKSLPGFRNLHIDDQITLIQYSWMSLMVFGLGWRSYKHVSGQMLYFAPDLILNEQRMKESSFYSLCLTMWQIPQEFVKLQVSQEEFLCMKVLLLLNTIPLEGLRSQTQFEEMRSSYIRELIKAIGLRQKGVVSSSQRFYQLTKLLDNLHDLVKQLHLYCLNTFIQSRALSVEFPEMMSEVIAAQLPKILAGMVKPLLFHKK
The data set can be described thus: Progesterone receptor transactivation test in stably transfected SK-N-MC cells (PR-A, MMTV-LUC reporter). Type of data set: cell-based. To be noted: 0.1 nmol/l promegestone, 24 hours, read-out: PR-A IC50 (antagonistic potency). On the procedure: (§2) Progesterone receptor-antagonistic action in stable transfectants of human neuroblastoma cells (SK-N-MC cells) with the human progesterone A or progesterone B receptor and an MN-LUC reporter construct SK-N-MC cells (human neuroblastoma cells) which have been stably transfected with plasmids expressing the human progesterone receptor B (pRChPR-B-neo) or the human progesterone receptor A (pRChPR-A-neo) and a reporter construct (pMMTV-LUC) were incubated for 24 hours either in the absence (negative control) or in the presence of ascending amounts of the particular test compound (0.01 nmol/l, 0.1 nmol/l, 1 […], 100 nmol/l and […]), in order to determine the agonistic efficacy. As a positive control of the reporter gene induction, the cells were treated with the synthetic gestagen promegestone (0.01 nmol/l, 0.1 nmol/l, 1 nmol/l, 10 nmol/l, 100 nmol/l and […]). To determine the antagonistic activity, the cells were treated with 0.1 nmol/l promegestone and additionally with ascending amounts of the particular test compound (0.01 nmol/l, 0.1 nmol/l, 1 nmol/l, 10 nmol/l, 100 nmol/l and […]). The activity of the reporter gene LUC (LUC=luciferase) was determined in the cell lysates and measured as RLU (relative light units). All measurements are reported as % efficacy and as EC50 and IC50 concentrations.

Data set [5] has as its target T2, human progesterone receptor B (Homo sapiens, UniProt P06401).
T2 construct: expressed in transfected cells; host or cells: SK-N-MC human neuroblastoma cells, stably transfected with pRChPR-B-neo and pMMTV-LUC
T2 sequence (P06401 1-933): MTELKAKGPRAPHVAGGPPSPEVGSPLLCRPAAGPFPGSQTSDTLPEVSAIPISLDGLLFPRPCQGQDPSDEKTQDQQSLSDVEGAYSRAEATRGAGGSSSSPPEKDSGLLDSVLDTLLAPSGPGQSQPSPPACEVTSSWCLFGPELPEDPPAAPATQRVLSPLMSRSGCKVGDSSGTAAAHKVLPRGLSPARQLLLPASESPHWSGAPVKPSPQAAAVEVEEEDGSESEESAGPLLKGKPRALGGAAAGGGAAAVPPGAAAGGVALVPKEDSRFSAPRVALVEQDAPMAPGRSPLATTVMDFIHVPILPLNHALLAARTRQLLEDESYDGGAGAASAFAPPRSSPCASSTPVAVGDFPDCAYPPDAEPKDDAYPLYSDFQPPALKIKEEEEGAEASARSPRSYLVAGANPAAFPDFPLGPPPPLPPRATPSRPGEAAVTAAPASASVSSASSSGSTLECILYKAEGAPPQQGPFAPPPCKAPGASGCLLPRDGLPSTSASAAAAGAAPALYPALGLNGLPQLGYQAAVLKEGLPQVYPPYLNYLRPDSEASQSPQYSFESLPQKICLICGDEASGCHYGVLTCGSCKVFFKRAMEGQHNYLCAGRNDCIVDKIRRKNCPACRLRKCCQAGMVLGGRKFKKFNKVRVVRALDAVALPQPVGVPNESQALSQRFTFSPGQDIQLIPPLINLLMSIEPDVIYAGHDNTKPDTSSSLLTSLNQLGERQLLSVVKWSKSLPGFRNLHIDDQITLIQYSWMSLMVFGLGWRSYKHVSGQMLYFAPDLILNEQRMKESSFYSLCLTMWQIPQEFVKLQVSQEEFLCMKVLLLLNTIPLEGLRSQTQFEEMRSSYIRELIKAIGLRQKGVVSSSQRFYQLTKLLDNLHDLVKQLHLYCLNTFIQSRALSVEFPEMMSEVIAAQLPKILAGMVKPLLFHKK
Briefly: Progesterone receptor transactivation test in stably transfected SK-N-MC cells (PR-B, MMTV-LUC reporter). To be noted: 0.1 nmol/l promegestone, 24 hours, read-out: PR-B IC50 (antagonistic potency). Format: cell-based. The protocol:
as §2

Setting [6] is: 37° C., read-out: Stability t1/2 in human plasma (converted).
Where [7] appears, read: method of working example 19, summary statement in description, read-out: half-life in human plasma.

Take `CC(OC(=O)[C@@H]1CCCN1C(=O)OC(C)(C)C)c1ccc([C@H]2C[C@@]3(C)C(CC[C@@]3(O)C(F)(F)C(F)(F)F)C3CCC4=CC(=O)CCC4=C32)cc1` (mixture of isomers) [Example 11, (S)-Pyrrolidine-1,2-dicarboxylic acid 1-tert-butyl ester 2-{(RS)-1-[4-((8S,11R,13S,14S,17S)-17-hydroxy-13-methyl-3-oxo-17-pentafluoroethyl-2,3,6,7,8,11,12,13,14,15,16,17-dodecahydro-1H-cyclopenta[a]phenanthren-11-yl)phenyl]ethyl}ester]: the half-life in data set [1] (pH = 1.2, 23° C.) was > 192 h; in data set [1] (pH = 8.0, 23° C.) it was > 192 h; in data set [2] (setting [6]), > 1000 h; in data set [2] (setting [7]) it was > 100 h; in data set [3] it was 462 h. Also, the IC50 in data set [4] was 0.1 nM; in data set [5], 0.05 nM.
Take `CC(OC(=O)[C@@H]1CCCN1)c1ccc([C@H]2C[C@@]3(C)C(CC[C@@]3(O)C(F)(F)C(F)(F)F)C3CCC4=CC(=O)CCC4=C32)cc1` (mixture of isomers) [Example 13, (S)-Pyrrolidine-2-carboxylic acid (RS)-1-[4-((8S,11R,13S,14S,17S)-17-hydroxy-13-methyl-3-oxo-17-pentafluoroethyl-2,3,6,7,8,11,12,13,14,15,16,17-dodecahydro-1H-cyclopenta[a]phenanthren-11-yl)phenyl]ethyl ester hydrochloride]: the half-life is > 192 h in data set [1] (pH = 1.2, 23° C.); > 192 h in data set [1] (pH = 8.0, 23° C.); 9.7 h in data set [2] (setting [6]); 5.3 h in data set [3]. Further, the IC50 in data set [4] was determined as 0.27 nM; in data set [5], 0.74 nM.
Take `CC(OC(=O)CCc1nccs1)c1ccc([C@H]2C[C@@]3(C)C(CC[C@@]3(O)C(F)(F)C(F)(F)F)C3CCC4=CC(=O)CCC4=C32)cc1` (mixture of isomers) [Example 15, 3-Thiazol-2-ylpropionic acid (RS)-1-[4-((8S,11R,13S,14S,17S)-17-hydroxy-13-methyl-3-oxo-17-pentafluoroethyl-2,3,6,7,8,11,12,13,14,15,16,17-dodecahydro-1H-cyclopenta[a]phenanthren-11-yl)phenyl]ethyl ester]: the half-life was > 192 h in data set [1] (pH = 1.2, 23° C.); > 192 h in data set [1] (pH = 8.0, 23° C.); 131 h in data set [2] (setting [6]); > 100 h in data set [2] (setting [7]); 1.2 h in data set [3]. In addition, the IC50 in data set [4] and in data set [5] was 0.1 nM each time.
With `Cc1nccn1CCC(=O)O[C@@H](C)c1ccc([C@H]2C[C@@]3(C)[C@@H](CC[C@@]3(O)C(F)(F)C(F)(F)F)[C@@H]3CCC4=CC(=O)CCC4=C32)cc1` (single isomer, unassigned) [Example 14A], the half-life was 190 h in data set [2] (setting [6]), > 100 h in data set [2] (setting [7]) and 48.5 h in data set [3]. The results for the IC50 in data set [4] and in data set [5] were 0.18 nM and 0.29 nM, respectively.
As to `Cc1nccn1CCC(=O)O[C@H](C)c1ccc([C@H]2C[C@@]3(C)[C@@H](CC[C@@]3(O)C(F)(F)C(F)(F)F)[C@@H]3CCC4=CC(=O)CCC4=C32)cc1` (single isomer, unassigned) [Example 14B], the figures for the half-life in data set [2] (setting [6]) and in data set [3] were 19.8 h and 0.8 h, respectively. Moreover, the results for the IC50 in data set [4] and in data set [5] were 0.29 nM and 0.15 nM, respectively.
Take `C=CCOC(=O)N[C@@H](C)C(=O)O[C@H](C)c1ccc([C@H]2C[C@@]3(C)[C@@H](CC[C@@]3(O)C(F)(F)C(F)(F)F)[C@@H]3CCC4=CC(=O)CCC4=C32)cc1` [Example 9, (S)-2-Allyloxycarbonylaminopropionic acid (R)-1-[4-((8S,11R,13S,14S,17S)-17-hydroxy-13-methyl-3-oxo-17-pentafluoroethyl-2,3,6,7,8,11,12,13,14,15,16,17-dodecahydro-1H-cyclopenta[a]phenanthren-11-yl)phenyl]ethyl ester]: the half-life in data set [2] (setting [6]) was 231 h; in data set [2] (setting [7]) it was > 100 h; in data set [3] it was 0.3 h. Further, the concentration for half-maximal inhibition (IC50) in data set [4] stood at 0.01 nM; in data set [5] it was 0.09 nM.
On to `C=CCOC(=O)N[C@@H](C)C(=O)O[C@@H](C)c1ccc([C@H]2C[C@@]3(C)[C@@H](CC[C@@]3(O)C(F)(F)C(F)(F)F)[C@@H]3CCC4=CC(=O)CCC4=C32)cc1` [Example 10, (S)-2-Allyloxycarbonylaminopropionic acid (S)-1-[4-((8S,11R,13S,14S,17S)-17-hydroxy-13-methyl-3-oxo-17-pentafluoroethyl-2,3,6,7,8,11,12,13,14,15,16,17-dodecahydro-1H-cyclopenta[a]phenanthren-11-yl)phenyl]ethy lester], for which the half-life in data set [2] (setting [6]) was 22.9 h; in data set [3], 3.6 h. In addition, the figures for the IC50 in data set [4] and in data set [5] were 0.08 nM and 0.09 nM, respectively.
